The subject of data set [1] is human erythrocytes. Description: Hemolysis assay. In kind it is cell-based. On the procedure: Hemolysis assays. Erythrocytes were isolated from freshly drawn, heparanized human blood and resuspended to 20 vol % in PBS (pH 7.4). In a 96-well microtiter plate, 100 μL erythrocyte suspension was added to 100 μL peptoid solution in PBS (prepared by 1:2 serial dilutions), or 100 μL PBS in the case of negative controls. 100% hemolysis wells contained 100 μL blood cell suspension with 100 μL 0.2 vol % Triton X-100. The plate was incubated for 1 h at 37° C., then each well was diluted with 150 μL PBS. The plate was then centrifuged at 1200 g for 15 min, 100 μL of the supernatant from each well transferred to a fresh microtiter plate, and A350 measured.
Hemolysis assays. Erythrocytes were isolated from freshly drawn, heparanized human blood and resuspended in PBS (pH 7.4) to make a 20% volume suspension. Peptoid solutions were prepared by serial dilution (2:1) in a 96-well microtiter plate. For test wells, 100 μL of erythrocyte suspension was added to 100 μL of peptoid solution in PBS; PBS without peptoid was used as the negative control and 0.2 vol % Triton X-100 as the positive control that indicates 100% hemolysis. After 1 hour incubation at 37° C., each well was diluted with 150 μL PBS. Plates were then centrifuged at 1,200×g for 15 minutes to pellet the cells. 30 μL of the supernatant from each well were transferred to the corresponding well of a second 96-well plate that contains 70 μL PBS.

Data set [2] in a line: MTS assay, metabolic inhibition. It counts as cell-based, mouse. The method, then:
(§1) The potencies of all compounds were determined against representative Gram-negative (E. coli ATCC 35218) and Gram-positive (B. subtilis ATCC 6633) biosafety level 1 (BSL1) organisms. In addition to hemolytic activity, the conventional measure of toxicity to mammalian cells, the effect of each ampetoid on NIH 3T3 mouse fibroblast cells was determined using the MTS tetrazolium salt-based calorimetric assay. While hemolysis measures the degree to which erythrocytes are lysed, the MTS assay indirectly quantifies the extent to which cellular metabolic activity is inhibited.
MTS assays. NIH/3T3 cells (ATCC Corporation) cultured at 37° C. and 5% CO2 in complete Dulbecco's modified eagle's media (CDMEM) supplemented with 1% sodium pyruvate, 1% penicillin-streptomycin, 1.5 g/L NaHCO3, and 10% fetal bovine serum. Cells were seeded at a density of 5,000 cells per well for NIH/3T3 cells in 96-well plates (100 μl total volume). A peptoid solution plate (100 μL total volume per well) was prepared by serial dilution of aqueous peptoid stock solution in Hank's balanced salt solution (HBSS) media. The day-old cell monolayers were washed with HBSS and media was replaced with 100 μL HBSS. The contents of the peptoid solution plate were transferred onto corresponding wells of the cell monolayer plate, and 40 μL MTS reagent (Promega, Inc.) was added to each well. After incubating for 3 hours at 37° C., absorbance at 490 nm was determined. […] The average of six replicates is reported.

In data set [3] the test system is E. coli (ATCC 35218). In kind it is cell-based. The note with it: ATCC 35218. On the procedure: (§2) Whereas the preceding generation of molecules was designed to elucidate structure function relationships of specific molecular parameters (chirality, length, hydrophobicity, etc.), another generation compounds were designed explicitly to explore effects on selectivity. Antimicrobial activity of these compounds was tested against bacterial strains E. coli (ATTC 35218) and B. subtilis (ATTC 6633) in cation-adjusted MHB using the microdilution protocols previously described. The sequences, antimicrobial activities, hemolytic activities, and metabolic inhibitory concentrations against NIH 3T3 mouse fibroblast cells are summarized in Table 3 and the rationale of their design is described below.
as §1
(§3) Screening antibacterial assays. MICs were determined in 96-well microtiter plates in accordance with CLSI M7-A6 protocols. Peptoid solutions with 50 μL total volume were prepared using 2:1 serial dilutions. 50 μL of bacteria inoculum (1×10^6 CFU/mL) prepared in cation-adjusted Mueller-Hinton broth (CAMHB) was added to test wells. Control wells contained 100 μL MHB (no growth) or 50 μL inoculums with 50 μL MHB with no peptoid. […] Reported values were reproducible over three experiments, each containing two parallel trials.

In data set [4] the test system is B. subtilis (ATCC 6633). It counts as cell-based. The note with it: ATCC 6633. On the procedure: as §2, §1, §3

Square brackets hold non-standard residues; d marks the D form. Peptide text beside a SMILES is read from it. Nspe = C[C@H](NCC(=O)O)c1ccccc1; Nphe = O=C(O)CNCc1ccccc1; Nlys = NCCCCNCC(=O)O

`C[C@@H](c1ccccc1)N(CC(=O)N(CCCCN)CC(=O)N(CC(=O)N(CC(=O)N(CCCCN)CC(=O)N(CC(=O)N(CC(=O)N(CCCCN)CC(N)=O)[C@@H](C)c1ccccc1)[C@@H](C)c1ccccc1)[C@@H](C)c1ccccc1)[C@@H](C)c1ccccc1)C(=O)CN(C(=O)CNCCCCN)[C@@H](C)c1ccccc1` [110mer, H-(Nlys-Nspe-Nspe)3-Nlys-NH2] (H-[Nlys][Nspe][Nspe][Nlys][Nspe][Nspe][Nlys][Nspe][Nspe][Nlys]-NH2): the HD50 in data set [1] is >200/>200 μM. Moreover, the IC50 (usually the concentration at which inhibition is half-maximal) in data set [2] was determined as 54 µM. Also, the “E. coli MIC” value in data set [3] was 12.5 µM. In data set [4], the “B. subtilis MIC” value stood at 0.78 µM.

Consider `C[C@@H](c1ccccc1)N(CC(=O)N(CC(=O)N(CCCCN)CC(=O)N(CC(=O)N(CC(=O)N(CCCCN)CC(=O)N(CC(=O)N(CC(=O)N(CCCCN)CC(=O)N(CC(=O)N(CC(N)=O)Cc1ccccc1)Cc1ccccc1)Cc1ccccc1)Cc1ccccc1)Cc1ccccc1)Cc1ccccc1)Cc1ccccc1)C(=O)CNCCCCN` [1ach-Nspe2, H-(Nlys-Nspe-Npm)-(Nlys-Npm-Npm)3-NH2] (H-[Nlys][Nspe][Nphe][Nlys][Nphe][Nphe][Nlys][Nphe][Nphe][Nlys][Nphe][Nphe]-NH2), for which, in data set [1], the HD10 was 160 µM and the HD50 was more than 200 µM. This compound returned an IC50 in data set [2] of 11 µM. In addition, in data set [3], the “E. coli MIC” value turned out to be 6.3 µM. In addition, in data set [4], the “B. subtilis MIC” value stood at 0.78 µM.

As to `C[C@@H](c1ccccc1)N(CC(N)=O)C(=O)CN(CCCCN)C(=O)CN(CCCCN)C(=O)CN(C(=O)CN(C(=O)CN(CCCCN)C(=O)CN(C(=O)CN(CCCCN)C(=O)CN(CCCCN)C(=O)CN(C(=O)CN(C(=O)CNCCCCN)[C@@H](C)c1ccccc1)[C@@H](C)c1ccccc1)[C@@H](C)c1ccccc1)[C@@H](C)c1ccccc1)[C@@H](C)c1ccccc1` [1-Nlys5,11, H-(Nlys-Nspe-Nspe-Nlys-Nlys-Nspe)2-NH2] (H-[Nlys][Nspe][Nspe][Nlys][Nlys][Nspe][Nlys][Nspe][Nspe][Nlys][Nlys][Nspe]-NH2), in data set [1], the HD10 is >100/>100 μM and the HD50 is reported as >100/>100 μM. Further, the IC50 in data set [2] turned out to be 85 µM. Besides, the “E. coli MIC” value in data set [3] was determined as 50 µM. Besides, the “B. subtilis MIC” value in data set [4] was found to be 1.6 µM.

In data set [1], `C[C@H](NCC(=O)N(CC(=O)N(CCCCN)CC(=O)N(CC(=O)N(CC(=O)N(CCCCN)CC(=O)N(CC(=O)N(CC(=O)N(CCCCN)CC(=O)N(CC(=O)N(CC(=O)N(CCCCN)CC(N)=O)[C@@H](C)c1ccccc1)[C@@H](C)c1ccccc1)[C@@H](C)c1ccccc1)[C@@H](C)c1ccccc1)[C@@H](C)c1ccccc1)[C@@H](C)c1ccccc1)[C@@H](C)c1ccccc1)c1ccccc1` [1C, H-(Nspe-Nspe-Nlys)4-NH2] (H-[Nspe][Nspe][Nlys][Nspe][Nspe][Nlys][Nspe][Nspe][Nlys][Nspe][Nspe][Nlys]-NH2) returned an HD10 of 25 µM and an HD50 of more than 100 µM. Further, inhibition in data set [2] was half-maximal at 5.6 µM (IC50). In data set [3], the “E. coli MIC” value came to 6.3 µM. Also, in data set [4], the “B. subtilis MIC” value stood at 1.6 µM.

Consider `C[C@H](NCC(=O)N(CCCCN)CC(=O)N(CC(=O)N(CC(=O)N(CCCCN)CC(=O)N(CC(=O)N(CC(=O)N(CCCCN)CC(=O)N(CC(=O)N(CC(=O)N(CCCCN)CC(=O)N(CC(N)=O)[C@@H](C)c1ccccc1)[C@@H](C)c1ccccc1)[C@@H](C)c1ccccc1)[C@@H](C)c1ccccc1)[C@@H](C)c1ccccc1)[C@@H](C)c1ccccc1)[C@@H](C)c1ccccc1)c1ccccc1` [1B, H-(Nspe-Nlys-Nspe)4-NH2] (H-[Nspe][Nlys][Nspe][Nspe][Nlys][Nspe][Nspe][Nlys][Nspe][Nspe][Nlys][Nspe]-NH2), for which, in data set [1], the HD50 is more than 100 µM. In addition, the IC50 in data set [2] was 4.9 µM. The “E. coli MIC” value in data set [3] was determined as 6.3 µM. Further, the “B. subtilis MIC” value in data set [4] worked out at 1.6 µM.

In data set [1], `C[C@@H](c1ccccc1)N(CC(=O)N(CCCCN)CC(=O)N(CC(=O)N(CC(=O)N(CCCCN)CC(=O)N(CC(=O)N(CC(=O)N(CCCCN)CC(=O)N(CC(=O)N(CC(=O)N(CCCCN)CC(N)=O)[C@@H](C)c1ccccc1)[C@@H](C)c1ccccc1)[C@@H](C)c1ccccc1)[C@@H](C)c1ccccc1)[C@@H](C)c1ccccc1)[C@@H](C)c1ccccc1)C(=O)CN(C(=O)CNCCCCN)[C@@H](C)c1ccccc1` [113mer, H-(Nlys-Nspe-Nspe)4-Nlys-NH2] (H-[Nlys][Nspe][Nspe][Nlys][Nspe][Nspe][Nlys][Nspe][Nspe][Nlys][Nspe][Nspe][Nlys]-NH2) gave an HD10 of 21 µM and an HD50 of more than 100 µM. For the same compound, the IC50 in data set [2] worked out at 5.6 µM. For the same compound, in data set [3], the “E. coli MIC” value amounted to 3.1 µM. Moreover, the “B. subtilis MIC” value in data set [4] is 0.78 µM.

Turning to `C[C@H](NCC(=O)N(CCCCN)CC(=O)N(CC(=O)N(CCCCN)CC(=O)N(CCCCN)CC(=O)N(CCCCN)CC(=O)N(CC(=O)N(CCCCN)CC(=O)N(CC(=O)N(CCCCN)CC(=O)N(CCCCN)CC(=O)N(CC(=O)N(CC(=O)N(CCCCN)CC(=O)N(CC(N)=O)[C@@H](C)c1ccccc1)[C@@H](C)c1ccccc1)[C@@H](C)c1ccccc1)[C@@H](C)c1ccccc1)[C@@H](C)c1ccccc1)[C@@H](C)c1ccccc1)c1ccccc1` [1B15mer-Nlys4,6,10, H-(Nspe-Nlys)2-Nlys2-(Nspe-Nlys)2-Nlys-Nspe2-Nlys-Nspe-NH2] (H-[Nspe][Nlys][Nspe][Nlys][Nlys][Nlys][Nspe][Nlys][Nspe][Nlys][Nlys][Nspe][Nspe][Nlys][Nspe]-NH2), the IC50 in data set [2] was 40 µM. In data set [3], the “E. coli MIC” value was more than 100 µM. In data set [4], the “B. subtilis MIC” value came out at 0.78 µM.

On to `C[C@H](NCC(=O)N(CCCCN)CC(=O)N(CC(=O)N(CCCCN)CC(=O)N(CCCCN)CC(=O)N(CC(=O)N(CC(=O)N(CCCCN)CC(=O)N(CC(=O)N(CCCCN)CC(=O)N(CCCCN)CC(=O)N(CC(N)=O)[C@@H](C)c1ccccc1)[C@@H](C)c1ccccc1)[C@@H](C)c1ccccc1)[C@@H](C)c1ccccc1)[C@@H](C)c1ccccc1)c1ccccc1` [1B-Nlys4,10, H-(Nspe-Nlys-Nspe-Nlys-Nlys-Nspe)2-NH2] (H-[Nspe][Nlys][Nspe][Nlys][Nlys][Nspe][Nspe][Nlys][Nspe][Nlys][Nlys][Nspe]-NH2), for which, in data set [1], the HD10 is >200/>200 μM and the HD50 is >200/>200 μM. In data set [2], this compound had an IC50 of 83 µM. The “E. coli MIC” value in data set [3] amounted to 50 µM. Further, in data set [4], the “B. subtilis MIC” value amounted to 0.78 µM.

On to `C[C@H](NCC(=O)N(CCCCN)CC(=O)N(CC(=O)N(CCCCN)CC(=O)N(CCCCN)CC(=O)N(CCCCN)CC(=O)N(CC(=O)N(CCCCN)CC(=O)N(CC(=O)N(CCCCN)CC(=O)N(CCCCN)CC(=O)N(CC(N)=O)[C@@H](C)c1ccccc1)[C@@H](C)c1ccccc1)[C@@H](C)c1ccccc1)[C@@H](C)c1ccccc1)c1ccccc1` [1B-Nlys4,6,10, H-(Nspe-Nlys)2-Nlys2-(Nspe-Nlys)2-Nlys-Nspe)-NH2] (H-[Nspe][Nlys][Nspe][Nlys][Nlys][Nlys][Nspe][Nlys][Nspe][Nlys][Nlys][Nspe]-NH2), for which, in data set [2], the IC50 was more than 100 µM. Besides, in data set [3], the “E. coli MIC” value is more than 100 µM. Moreover, in data set [4], the “B. subtilis MIC” value was determined as 1.6 µM.

In data set [1], `C[C@@H](c1ccccc1)N(CC(N)=O)C(=O)CN(C(=O)CN(CCCCN)C(=O)CN(C(=O)CN(C(=O)CN(CCCCN)C(=O)CN(CCc1cnc[nH]1)C(=O)CN(C(=O)CN(CCCCN)C(=O)CN(C(=O)CN(C(=O)CNCCCCN)[C@@H](C)c1ccccc1)[C@@H](C)c1ccccc1)[C@@H](C)c1ccccc1)[C@@H](C)c1ccccc1)[C@@H](C)c1ccccc1)[C@@H](C)c1ccccc1` [1-Nhis6] yielded an HD10 of 170 µM and an HD50 of more than 200 µM. The “E. coli MIC” value in data set [3] was found to be 25 µM. Also, the “B. subtilis MIC” value in data set [4] worked out at 1.6 µM.

These data come from US20100036088A1, “Selective poly-N-substituted glycine antibiotics” (priority 2008, published 2010).
